Experimental data: patent US20260103465A1, “GLYCOGEN SYNTHASE KINASE 3 INHIBITORS AND USES THEREOF” (The Broad Institute, Inc., priority 2023, published 2026)
Like-named read-outs stand apart in the source and are kept apart here.

What was measured:
[1] = Human liver microsomal stability; assay type: in vitro ADME; details: human liver microsomes; Table 4
Summary of the method: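 Compound incubated at 1 µM with human liver microsomes for 60 min at 37 °C, in duplicate. Percent remaining derived from compound level at 60 min relative to 0 min. Controls: microsomes with NADPH and no compound; compound with microsomes lacking NADPH.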

[2] = biological target: T1, GSK3b (GST-full length GSK3b) (Homo sapiens, UniProt P49841); assay: GSK3b TR-FRET kinase inhibition assay; assay type: biochemical
T1 construct: GST-full length GSK3b: [SignalChem G08-9G]; purchased SignalChem G08-9G
T1 sequence (P49841 whole entry): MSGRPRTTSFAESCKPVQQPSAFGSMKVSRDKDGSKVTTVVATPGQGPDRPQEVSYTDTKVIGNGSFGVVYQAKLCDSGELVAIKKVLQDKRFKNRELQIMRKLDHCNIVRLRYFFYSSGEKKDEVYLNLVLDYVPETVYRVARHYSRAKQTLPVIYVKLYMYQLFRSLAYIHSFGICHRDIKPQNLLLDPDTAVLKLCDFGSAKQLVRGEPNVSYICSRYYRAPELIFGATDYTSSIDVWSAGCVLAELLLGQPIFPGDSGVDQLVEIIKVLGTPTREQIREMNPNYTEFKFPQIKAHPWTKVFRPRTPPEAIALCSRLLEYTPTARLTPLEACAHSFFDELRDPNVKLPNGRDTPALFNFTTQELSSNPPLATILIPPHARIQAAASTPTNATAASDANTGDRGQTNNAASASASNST
Summary of the method: (§1)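 IC50 derived from normalized 665/615 TR-FRET signal (Tb anti-pSer641 antibody, streptavidin-d2), read after EDTA stop. Reaction: 1 nM GST-full-length enzyme, 30 min compound pre-incubation, 100 min at ambient temperature in Tris pH 7.5 with 1% DMSO, 200 nM biotinylated primed glycogen synthase peptide, ATP 2 μM to 1 mM.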

[3] = biological target: T2, GSK3a (GST-full length GSK3a) (Homo sapiens, UniProt P49840); assay: GSK3a TR-FRET kinase inhibition assay; assay type: biochemical
T2 construct: GST-full length GSK3a [SignalChem G08-10G]; purchased SignalChem G08-10G
T2 sequence (P49840 whole entry): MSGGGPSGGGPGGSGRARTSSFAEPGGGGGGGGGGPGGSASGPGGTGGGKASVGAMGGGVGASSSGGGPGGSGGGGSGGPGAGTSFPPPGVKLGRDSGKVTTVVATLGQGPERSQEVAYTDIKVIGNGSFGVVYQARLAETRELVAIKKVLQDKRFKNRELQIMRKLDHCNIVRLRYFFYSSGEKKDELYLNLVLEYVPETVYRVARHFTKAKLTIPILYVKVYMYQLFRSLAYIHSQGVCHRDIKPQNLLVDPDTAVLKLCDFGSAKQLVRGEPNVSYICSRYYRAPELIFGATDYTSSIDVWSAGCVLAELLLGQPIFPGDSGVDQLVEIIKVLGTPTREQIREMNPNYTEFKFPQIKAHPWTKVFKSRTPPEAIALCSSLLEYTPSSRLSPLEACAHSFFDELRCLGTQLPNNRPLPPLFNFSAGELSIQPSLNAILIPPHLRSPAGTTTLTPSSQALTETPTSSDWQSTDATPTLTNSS
Summary of the method: as §1

[4] = system: MDR1-MDCK cell monolayers; assay: MDR1/MDCK permeability assay; assay type: in vitro ADME; details: Table 4; for MDCK Permeability (MDR1-MDCK); Mean; Papp(A-B) (10^−6 cm/s): A to B; for MDCK Permeability (MDR1-MDCK); Mean; Papp(B-A) (10^−6 cm/s): B to A; for MDCK Permeability (MDR1-MDCK); Mean; P. Ratio(B-A/A-B) Efflux Ratio: Papp B-A/A-B
Summary of the method: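 Confluent MDR1-MDCK monolayers (7–11 days old), compound dosed at 5 μM in HBSSg (≤1% DMSO) apically or basolaterally, pH 7.4 both sides, receiver with 1% BSA, N=2. Both sides sampled at 120 min and quantified by LC-MS/MS; Papp in each direction, efflux ratio B-A/A-B and recovery reported.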

[5] = 2 μM ATP, read-out: GSK3β TR-FRET 2 μM ATP GMean IC50
[6] = 1 mM ATP, Table 4, read-out: GSK3β TR-FRET 1 mM ATP GMean IC50
[7] = 4 μM ATP, read-out: GSK3α TR-FRET 4 μM ATP GMean IC50
[8] = 1 mM ATP, Table 4, read-out: GSK3α TR-FRET 1 mM ATP GMean IC50

SMILES	Microsome Stability (Human) (DMPK_BIIB); Mean; in vitro t1/2 [1] [min]	IC50 [2, 5] [nM]	IC50 [2, 6] [nM]	IC50 [3, 7] [nM]	IC50 [3, 8] [nM]	MDCK Permeability (MDR1-MDCK); Mean; Papp(A-B) (10^−6 cm/s) [4]	MDCK Permeability (MDR1-MDCK); Mean; Papp(B-A) (10^−6 cm/s) [4]	MDCK Permeability (MDR1-MDCK); Mean; P. Ratio(B-A/A-B) Efflux Ratio [4]
CCC1(c2cccc(-c3ccnn3C)c2)C2=C(CC(C)(C)CC2=O)Nc2ncccc21 (single isomer, unassigned) [Compound 1019A]	4.8	≤ 100	1000 to 5000	≤ 100	100 to 1000	4.2 10^−6 cm/s	39 10^−6 cm/s	9.5
CCC1(c2cccc(-c3ccncc3C)c2)C2=C(CC(C)(C)CC2=O)Nc2ncccc21 (single isomer, unassigned) [Compound 1020B]	6.4	≤ 100	1000 to 5000	≤ 100	100 to 1000	14 10^−6 cm/s	24 10^−6 cm/s	1.8
CCC1(c2cccc(-c3cn(C)nc3C)c2)C2=C(CC(C)(C)CC2=O)Nc2ncccc21 (single isomer, unassigned) [Compound 1023A]	3.2	≤ 100	1000 to 5000	≤ 100	100 to 1000	3.0 10^−6 cm/s	27 10^−6 cm/s	9.0
CCC1(c2cccc(-c3cc(C)nn3C)c2)C2=C(CC(C)(C)CC2=O)Nc2ncccc21 (single isomer, unassigned) [Compound 1024B]	4.3	100 to 1000	–	≤ 100	–	2.8 10^−6 cm/s	31 10^−6 cm/s	11
CCC1(c2cccc(-c3ccnn3C)c2)C2=C(CC(C)(C)CC2=O)Nc2ncc(F)cc21 (single isomer, unassigned) [Compound 1025A]	5.5	≤ 100	–	≤ 100	–	4.6 10^−6 cm/s	42 10^−6 cm/s	9.1
CCC1(c2cccc(-c3cc(C)ncc3C)c2)C2=C(CC(C)(C)CC2=O)Nc2ncccc21 (single isomer, unassigned) [Compound 1027B]	3.1	100 to 1000	–	≤ 100	–	5.1 10^−6 cm/s	30 10^−6 cm/s	5.8
CCC1(c2cccc(-c3ccncc3C)c2)C2=C(CC(C)(C)CC2=O)Nc2ncc(F)cc21 (single isomer, unassigned) [Compound 1031B]	19	≤ 100	–	≤ 100	–	6.2 10^−6 cm/s	22 10^−6 cm/s	3.6
